Measured values from the CheMixHub viscosity set.

Experiment: xn = mol fraction of the nth substance listed

CC(=O)CC(C)=O + CCC(C)(C)O
298.15 K, 101 kPa
Conditions | viscosity [mPa·s]
x1 = 0.1 | 2.481
x1 = 0.2 | 1.809
x1 = 0.3 | 1.39
x1 = 0.4 | 1.138
x1 = 0.5 | 0.987
x1 = 0.6 | 0.893
x1 = 0.7 | 0.827
x1 = 0.8 | 0.776
x1 = 0.9 | 0.733

CCC(C)(C)O + CCC(C)=O
Conditions | viscosity [mPa·s]
293.15 K, 101 kPa, x2 = 0.2341 | 2.105

CN(C)c1ccccc1 + CCC(C)=O
viscosity [mPa·s], 101 kPa
Conditions | 303.15 K | 308.15 K
x1 = 0.0689 | 0.487 | 0.438
x1 = 0.1256 | 0.574 | 0.516
x1 = 0.1905 | 0.671 | 0.605
x1 = 0.2652 | 0.776 | 0.701
x1 = 0.3256 | 0.853 | 0.773
x1 = 0.3905 | 0.926 | 0.84
x1 = 0.4621 | 0.993 | 0.905
x1 = 0.5362 | 1.048 | 0.958
x1 = 0.6058 | 1.086 | 0.997
x1 = 0.6753 | 1.113 | 1.025
x1 = 0.7416 | 1.129 | 1.045
x1 = 0.8056 | 1.14 | 1.06
x1 = 0.8826 | 1.149 | 1.076

C=CC#N + CCC(C)O
viscosity [mPa·s], 101.33 kPa
Conditions | x1 = 0.1033 | x1 = 0.2014 | x1 = 0.301 | x1 = 0.4055 | x1 = 0.5087 | x1 = 0.6049 | x1 = 0.7009 | x1 = 0.803 | x1 = 0.8992
298.15 K | 1.828 | 1.319 | 0.99 | 0.775 | 0.63 | 0.536 | 0.456 | 0.418 | 0.378
303.15 K | 1.567 | 1.165 | 0.887 | 0.704 | 0.582 | 0.499 | 0.438 | 0.391 | 0.358
308.15 K | 1.361 | 1.024 | 0.799 | 0.644 | 0.539 | 0.465 | 0.413 | 0.373 | 0.342

CC(C)(C)Br + CCC(C)O
viscosity [mPa·s], 101.3 kPa
Conditions | x1 = 0.1001 | x1 = 0.2023 | x1 = 0.3034 | x1 = 0.4041 | x1 = 0.5076 | x1 = 0.605 | x1 = 0.7049 | x1 = 0.8014 | x1 = 0.8997
298.15 K | 2.174 | 1.629 | 1.302 | 1.105 | 0.9569 | 0.876 | 0.8006 | 0.768 | 0.7327
313.15 K | 1.386 | 1.108 | 0.9333 | 0.8074 | 0.7201 | 0.6655 | 0.6235 | 0.6023 | 0.5859

CCCCN(CCCC)CCCC + CCC(C)O
303.15 K, 101 kPa
Conditions | viscosity [mPa·s]
x1 = 0.01127 | 2.456
x1 = 0.0218 | 2.439
x1 = 0.03265 | 2.423
x1 = 0.04214 | 2.409
x1 = 0.04957 | 2.399
x1 = 0.05793 | 2.387
x1 = 0.06851 | 2.372
x1 = 0.07785 | 2.359
x1 = 0.08821 | 2.345

CN(C)c1ccccc1 + CCC(C)O
303.15 K, 101 kPa
Conditions | viscosity [mPa·s]
x1 = 0.0452 | 2.686
x1 = 0.0845 | 2.638
x1 = 0.1321 | 2.582
x1 = 0.1893 | 2.512
x1 = 0.2452 | 2.442
x1 = 0.2756 | 2.402
x1 = 0.3065 | 2.362
x1 = 0.3655 | 2.279
x1 = 0.4292 | 2.183
x1 = 0.4906 | 2.086
x1 = 0.6021 | 1.893
x1 = 0.7323 | 1.65
x1 = 0.8911 | 1.353
